# Laboratory results reported in patent US20120021434A1, “METHOD FOR TREATING B CELL REGULATED AUTOIMMUNE DISORDERS” (Synta Pharmaceuticals Corp., priority 2005, published 2012).
# Assays:
# c-Rel = molecular target: T1, c-Rel (Mus musculus, UniProt P15307); assay: BD TransFactor assay of c-Rel DNA-binding activity in nuclear extracts of RAW 264.7 cells; type: cell-based; conditions: LPS/IFNγ, 1000 nM, 30 min pre-treatment, 3 hrs
# T1 construct: nuclear extracts from RAW cells stimulated with LPS/IFNγ; endogenous in cells; host or cells: RAW264.7
# T1 sequence (P15307 whole entry): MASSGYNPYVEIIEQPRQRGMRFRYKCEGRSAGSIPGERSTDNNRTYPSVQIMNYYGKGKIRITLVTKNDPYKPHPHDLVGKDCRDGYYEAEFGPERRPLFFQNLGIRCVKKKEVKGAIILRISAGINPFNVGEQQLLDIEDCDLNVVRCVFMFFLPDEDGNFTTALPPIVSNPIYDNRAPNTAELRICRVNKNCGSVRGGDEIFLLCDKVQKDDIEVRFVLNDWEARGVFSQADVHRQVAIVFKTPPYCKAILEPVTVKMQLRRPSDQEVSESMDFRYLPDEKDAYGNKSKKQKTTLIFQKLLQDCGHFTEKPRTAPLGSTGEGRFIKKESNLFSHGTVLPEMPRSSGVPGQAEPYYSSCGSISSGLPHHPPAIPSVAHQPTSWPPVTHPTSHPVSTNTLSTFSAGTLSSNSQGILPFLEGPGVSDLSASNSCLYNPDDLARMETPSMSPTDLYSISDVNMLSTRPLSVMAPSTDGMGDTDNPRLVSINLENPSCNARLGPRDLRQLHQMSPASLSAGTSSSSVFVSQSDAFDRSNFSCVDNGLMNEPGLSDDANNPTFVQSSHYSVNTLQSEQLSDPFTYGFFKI
# Protocol: In this study, we examined the effect of Compound 50 on the DNA-binding activity of nuclear c-Rel. The BD transfactor assay (a non-radioactive version of a super-shift assay) was used to measure the DNA-binding activity of c-Rel. In this assay, nuclear extracts are added to biotinylated double-stranded oligonucleotides containing the NF-κB binding site bound to a streptavidin 96-well plate. Detection of the transcription factor-DNA complex is performed with a specific primary antibody for c-Rel. The 96-well format allows for simultaneous measurement of multiple conditions and proteins using HRP-conjugated secondary antibodies whose enzymatic product can be measured using a luminometer. The level of c-Rel DNA-binding activity increased 40-fold (relative to DMSO control) in nuclear extracts from RAW cells stimulated with LPS/IFNγ.
# Methods: 20×10^6 Raw 264.7 cells were treated with either DMSO, LPS/IFNγ, or LPS/IFNγ/Compound 50. (LPS conc. 1 ug/ml f.c.; mouse IFNγ mouse 100 U/ml f.c, Compound 501 uM f.c). (LPS: Sigma Cat # L2654. Mouse IFNγ; Cat # R+D 485-MICF). […]
# After measurement of protein concentration using BioRad assay, the nuclear extract was used in a Chemiluminescent NF-κB TransFactor Kit (BD) according to the user manual. […] Finally, amount of bound antibody to the plate was detected by incubation with chemiluminescent substrate and subsequent detection with a luminometer. […]
# [1] = test system: purified mouse splenic (CD19+) B cells; assay: Primary mouse B cell survival, Annexin V/propidium iodide flow cytometry; type: cell-based; conditions: 24 h; for viability at 0.0001 µM / viability at 0.001 µM / viability at 0.01 µM / viability at 0.1 µM / viability at 1 µM: Mus musculus, B-cell
# Protocol: Therefore, the effect of Compound 50 on the activation and survival of homogeneous populations of primary B and T lymphocytes has been explored. As a first step in this process, we evaluated the effect of Compound 50 on the survival of purified mouse splenic (CD19^+) B cells. When cultured ex vivo, primary B cells undergo spontaneous apoptosis within 24-48 h in the absence of any survival signals. Examples of such stimuli include those mediated by anti-CD40 (or CD40L), BAFF, or B cell receptor signals provided by either anti-IgM or LPS. Murine primary B cells were isolated from mouse spleen using anti-CD19 coated magnetic beads (Miltenyi Biotec) according to the manufacturer's recommendations. Purified CD19^+ B cells were cultured at 100,000 cells/well in 96-well microtiter plates in culture medium (RPMI 1640 supplemented with 10% fetal bovine serum, 2 mM L-glutamine, 1 mM sodium pyruvate, 20 mM HEPES, and 55 μM β-mercaptoethanol) in the presence of 10 μg/ml anti-CD40, 5 μg/ml LPS or 100 ng/ml BAFF in the presence or absence of Compound 50 for 24 h and measured the frequency of viable and apoptotic cells using Annexin V/propidum iodide flow cytometric analysis. To perform this analysis, cells were washed with PBS and labeled with Annexin V-FITC and propidium iodide (BioVision) according to the manufacturer's instructions. Apoptotic cell (Annexin V-positive) and live cell (Annexin V-negative/propidium iodide-negative) percentages were determined using a flow cytometer.
smiles,measurement,setting,value
"Cc1cccc(/C=N/Nc2cc(N3CCOCC3)nc(OCCc3ccccn3)n2)c1 [Compound 50, N-(3-Methyl-benzylidene)-N′-[6-morpholin-4-yl-2-(2-pyridin-2-yl-ethoxy)-pyrimidin-4-yl]-hydrazine]",reduction in the level of c-Rel DNA-binding activity,c-Rel,40%
same,% Apoptotic,"[1]; Anti-CD40 (10 μg/ml), 0.1 nM",39%
same,% Apoptotic,"[1]; Anti-CD40 (10 μg/ml), 1 nM",37%
same,% Apoptotic,"[1]; Anti-CD40 (10 μg/ml), 10 nM",46%
same,% Apoptotic,"[1]; Anti-CD40 (10 μg/ml), 100 nM",89%
same,% Apoptotic,"[1]; Anti-CD40 (10 μg/ml), 1000 nM",90%
same,% Apoptotic,"[1]; BAFF (100 ng/ml), 0.1 nM",40%
same,% Apoptotic,"[1]; BAFF (100 ng/ml), 1 nM",43%
same,% Apoptotic,"[1]; BAFF (100 ng/ml), 10 nM",52%
same,% Apoptotic,"[1]; BAFF (100 ng/ml), 100 nM",92%
same,% Apoptotic,"[1]; BAFF (100 ng/ml), 1000 nM",93%
same,% Apoptotic,"[1]; LPS (5 μg/ml), 0.1 nM",31%
same,% Apoptotic,"[1]; LPS (5 μg/ml), 1 nM",32%
same,% Apoptotic,"[1]; LPS (5 μg/ml), 10 nM",44%
same,% Apoptotic,"[1]; LPS (5 μg/ml), 100 nM",79%
same,% Apoptotic,"[1]; LPS (5 μg/ml), 1000 nM",79%
same,viability at 0.0001 µM,"[1]; Anti-CD40 (10 μg/ml), 0.1 nM",55%
same,viability at 0.001 µM,"[1]; Anti-CD40 (10 μg/ml), 1 nM",51%
same,viability at 0.01 µM,"[1]; Anti-CD40 (10 μg/ml), 10 nM",48%
same,viability at 0.1 µM,"[1]; Anti-CD40 (10 μg/ml), 100 nM",5%
same,viability at 1 µM,"[1]; Anti-CD40 (10 μg/ml), 1000 nM",3%
same,viability at 0.0001 µM,"[1]; BAFF (100 ng/ml), 0.1 nM",55%
same,viability at 0.001 µM,"[1]; BAFF (100 ng/ml), 1 nM",52%
same,viability at 0.01 µM,"[1]; BAFF (100 ng/ml), 10 nM",43%
same,viability at 0.1 µM,"[1]; BAFF (100 ng/ml), 100 nM",4%
same,viability at 1 µM,"[1]; BAFF (100 ng/ml), 1000 nM",3%
same,viability at 0.0001 µM,"[1]; LPS (5 μg/ml), 0.1 nM",63%
same,viability at 0.001 µM,"[1]; LPS (5 μg/ml), 1 nM",63%
same,viability at 0.01 µM,"[1]; LPS (5 μg/ml), 10 nM",51%
same,viability at 0.1 µM,"[1]; LPS (5 μg/ml), 100 nM",15%
same,viability at 1 µM,"[1]; LPS (5 μg/ml), 1000 nM",13%
same,B cells apoptotic,"[1]; concentrations 100 nM, with anti-CD40, LPS or BAFF",80-90%
